Assay results reported in patent publication EP4722213A1, “NITROGEN-CONTAINING FUNCTIONAL GROUP-SUBSTITUTED PYRIDAZINOPYRIDONE DERIVATIVE AND USE THEREOF” (Sichuan Huiyu Pharmaceutical Co., Ltd., priority 2023, dated 2024).

Assays:
[1] = Rat liver microsomal metabolic stability; assay type: in vitro ADME; settings: rat liver microsomes; for half-life at 1 µM: NADPH, 37°C; for CLint scaled at 1 µM: calculated from T1/2, fu defaulted to 1, read-out: CL(liver)
From the text: Metabolic stability affects the clearance rate, half-life, and oral bioavailability of compounds in the body, and is one of the most important ADME drug-like properties of compounds. Hepatocyte microsomal stability assay is a commonly used method for studying metabolic stability. In the present disclosure, rat liver microsomes are used to determine and investigate the metabolic stability of compounds.
Preparation of compound stock solution: an appropriate amount of the test compound and testosterone was taken, and a 1 mM stock solution was prepared with DMSO, which was stored in a refrigerator at 4°C.
Preparation of compound working solution: The 1 mM compound stock solution was taken respectively, and then diluted to 100 µM with acetonitrile-water (v:v = 1:1) to obtain the working solution.
Preparation of NADPH working solution: an appropriate amount of NADPH was weighed and dissolved in 16 mM MgCl2 to prepare a NADPH working solution with a concentration of 4.0 mM.
Preparation of rat liver microsome working solution: an appropriate amount of rat liver microsomes was taken and diluted with PBS to obtain a liver microsome working solution with a concentration of 1 mg/mL.
In the incubation system, 48 µL of PBS, 100 µL of rat liver microsome working solution, and 2 µL of the test compound working solution were sequentially added and mixed well. After pre-incubation at 37°C for 5 min, 50 µL of NADPH was added to initiate the reaction. After incubation for the corresponding time points, an appropriate amount of ice-cold acetonitrile containing an internal standard was added to terminate the reaction. The mixture was vortexed to mix well, centrifuged, and the supernatant was collected. The supernatant was injected into LC-MS/MS for detection of the residual metabolic amount of the compound.
Softwares of Excel, etc. were used for data processing according to the following formula. Ct = C0 •e^(−ke •t) [formula] when Ct = (1)/(2)C0 [formula] , T1/2 = (Ln2)/(ke) = (0.693)/(ke) [formula] CLint(mic) = (0.693)/(In vitro T1/2)•(1)/(mg/mL microsomal protein in reaction system) [formula] CLint(liver) = CLint(mic) •(mg microsomes)/(g liver)•(g liver)/(kg body weight) [formula] CL(liver) = (CLint(liver)×fu×Qh)/(CLint(liver)×fu+Qh) [formula] fu (unbound fraction in blood) was defaulted to be 1.

[2] = target: T1, SOS1 (Homo sapiens, UniProt Q07889); assay: biochemical
T1 sequence (Q07889 1-1333): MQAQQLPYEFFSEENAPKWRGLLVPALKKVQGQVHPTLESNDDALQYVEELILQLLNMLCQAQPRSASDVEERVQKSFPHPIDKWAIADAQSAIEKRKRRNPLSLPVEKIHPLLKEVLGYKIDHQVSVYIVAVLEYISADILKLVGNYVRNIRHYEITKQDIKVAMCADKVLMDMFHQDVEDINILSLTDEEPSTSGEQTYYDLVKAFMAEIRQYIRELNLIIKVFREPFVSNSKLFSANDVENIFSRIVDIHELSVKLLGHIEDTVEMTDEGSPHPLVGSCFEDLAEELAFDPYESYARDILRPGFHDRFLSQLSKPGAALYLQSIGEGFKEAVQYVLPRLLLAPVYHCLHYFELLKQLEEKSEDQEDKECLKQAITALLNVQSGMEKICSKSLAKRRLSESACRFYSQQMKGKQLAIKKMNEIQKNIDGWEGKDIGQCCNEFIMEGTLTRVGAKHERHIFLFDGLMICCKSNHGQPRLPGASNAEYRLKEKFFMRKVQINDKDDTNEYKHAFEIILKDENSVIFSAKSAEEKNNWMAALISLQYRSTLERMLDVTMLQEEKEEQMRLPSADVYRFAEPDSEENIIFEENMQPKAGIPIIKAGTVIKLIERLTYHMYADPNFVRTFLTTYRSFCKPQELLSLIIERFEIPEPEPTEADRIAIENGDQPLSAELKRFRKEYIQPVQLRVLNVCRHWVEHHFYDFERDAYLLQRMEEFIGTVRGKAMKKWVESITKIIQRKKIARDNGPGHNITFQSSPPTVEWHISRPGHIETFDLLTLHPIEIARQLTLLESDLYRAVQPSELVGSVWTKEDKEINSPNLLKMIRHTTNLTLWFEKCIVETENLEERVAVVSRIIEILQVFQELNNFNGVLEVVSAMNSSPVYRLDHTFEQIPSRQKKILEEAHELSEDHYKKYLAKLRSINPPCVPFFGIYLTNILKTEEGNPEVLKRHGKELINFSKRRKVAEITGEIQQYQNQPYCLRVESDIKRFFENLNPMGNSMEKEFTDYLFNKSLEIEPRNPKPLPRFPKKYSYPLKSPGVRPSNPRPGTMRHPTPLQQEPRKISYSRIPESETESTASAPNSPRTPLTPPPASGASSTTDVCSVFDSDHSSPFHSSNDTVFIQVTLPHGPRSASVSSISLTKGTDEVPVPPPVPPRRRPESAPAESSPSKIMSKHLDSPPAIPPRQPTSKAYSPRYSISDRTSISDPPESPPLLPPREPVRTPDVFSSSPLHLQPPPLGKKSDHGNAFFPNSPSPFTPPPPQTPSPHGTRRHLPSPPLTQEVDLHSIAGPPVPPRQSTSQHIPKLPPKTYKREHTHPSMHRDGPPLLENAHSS

Work on `C[C@@H](Nc1nnc(NC2CC2)c2cc(=O)n(C3(C)CC3)cc12)c1cccc(C(F)F)c1F` [Example 10, (R)-1-(cyclopropylamino) -4-((1-(3-(difluoromethyl)-2-fluorophenyl)ethyl)amino)-6-(1-methylcyclopropyl) pyrido[3,4-d]pyridazin-7(6H)-one] yielded a half-life at 1 µM [1] of 0.483 h, a CLint scaled at 1 µM [1] of 33.6 mL/min/kg and an IC50 [2] of 5.8 nM.

For `C[C@@H](Nc1nnc(NC2(C)CC2)c2cc(=O)n(C3(C)CC3)cc12)c1cccc(C(F)F)c1F` [Example 11, (R)-4-((1-(3-(difluoromethyl)-2-fluorophenyl)ethyl)amino)-6-(1-methylcyclopropyl)-1-((1-methylcyclopropyl)amino)pyrido[3,4-d]pyridazin-7(6H)-one], the half-life at 1 µM [1] was 0.855 h, the CLint scaled at 1 µM [1] was 25.8 mL/min/kg and the IC50 [2] was 1.4 nM.

`C[C@@H](Nc1nnc(N2CCC2)c2cc(=O)n(C3CC3)cc12)c1cccc(C(F)F)c1F` [Example 15, (R)-1-(azetidin-1-yl)-6-cyclopropyl-4-((1-(3-(difluoromethyl)-2-fluorophenyl)ethyl)amino)pyrido[3,4-d]pyridazin-7(6H)-one] gave a half-life at 1 µM [1] of 0.787 h, a CLint scaled at 1 µM [1] of 27 mL/min/kg and an IC50 [2] of 5.5 nM.

`CNc1nnc(N[C@H](C)c2cccc(C#N)c2C)c2cn(C3CC3)c(=O)cc12` [Example 38, (R)-3-(1-((6-cyclopropyl-1-(methylamino)-7-oxo-6,7-dihydropyrido[3,4-d]pyridazin-4-yl)amino)ethyl)-2-methylbenzonitrile] gave a half-life at 1 µM [1] of 3.55 h, a CLint scaled at 1 µM [1] of 9.7 mL/min/kg and an IC50 [2] of 5 nM.

`Cc1c([C@@H](C)Nc2nnc(N3CCC3)c3cc(=O)n(C4CC4)cc23)cccc1C(F)(F)F.O=CO` [Example 50, (R)-1-(azetidin-1-yl)-6-cyclopropyl-4-((1-(2-methyl-3-(trifluoromethyl)phenyl)ethyl)amino)pyr ido[3,4-d]pyridazin-7(6H)-one formate] gave a half-life at 1 µM [1] of 2.18 h, a CLint scaled at 1 µM [1] of 14.2 mL/min/kg and an IC50 [2] of 5.8 nM.

Compound `C[C@@H](Nc1nnc(N2CCNCC2)c2cc(=O)n(C3(C)CC3)cc12)c1cccc(C(F)F)c1F` [Example 78, (R)-4-((1-(3-(difluoromethyl)-2-fluorophenyl)ethyl)amino)-6-(1-methylcyclopropyl)-1-(piperazin-1-yl)pyrido[3,4-d]pyridazin-7(6H)-one] has a half-life at 1 µM [1] of 4.22 h, a CLint scaled at 1 µM [1] of 8.4 mL/min/kg and an IC50 [2] of 4.6 nM.

For `CC(C)C1CCN(c2nnc(N[C@H](C)c3cccc(C(F)F)c3F)c3cn(C4(C)CC4)c(=O)cc23)CC1` [Example 121, (R)-4-((1-(3-(difluoromethyl)-2-fluorophenyl)ethyl)amino)-1-(4-isopropylpiperidin-1-yl)-6-(1-methylcyclopropyl) pyrido[3,4-d]pyridazin-7(6H)-one], the half-life at 1 µM [1] was > 5 h, the CLint scaled at 1 µM [1] was < 7.23 mL/min/kg and the IC50 [2] was 5.5 nM.

`C[C@@H](Nc1nnc(N2CCN(C)CC2)c2cc(=O)n(C3(C)CC3)cc12)c1cccc(C(F)(F)CO)c1` [Example 226, (R)-4-((1-(3-(1,1-difluoro-2-hydroxyethyl)phenyl)ethyl)amino)-6-(1-methylcyclopropyl)-1-(4-methylpiperazin-1-yl)pyrido[3,4-d]pyridazin-7(6H)-one] showed an IC50 [2] of 4.3 nM.

For `C[C@@H](Nc1nnc(N2CCC(CO)C2)c2cc(=O)n(C3(C)CC3)cc12)c1cccc(C(F)(F)CO)c1` (stereo partly drawn) [Example 228, 4-(((R)-1-(3-(1,1-difluoro-2-hydroxyethyl)phenyl)ethyl)amino)-1-(3-(hydroxymethyl)pyrrolidin-1-yl)-6-(1-methylcyclopropyl) pyrido[3,4-d]pyridazin-7(6H)-one], the IC50 [2] was 4.4 nM.

Compound `C[C@@H](Nc1nnc(N2CC(CO)C2)c2cc(=O)n(C3(C)CC3)cc12)c1cccc(C(F)(F)CO)c1` [Example 229, (R)-4-((1-(3-(1,1-difluoro-2-hydroxyethyl)phenyl)ethyl)amino)-1-(3-(hydroxymethyl)azetidin-1-yl)-6-(1-methylcyclopropyl) pyrido[3,4-d]pyridazin-7(6H)-one] has an IC50 [2] of 4.5 nM.
